Here are results for six molecules from patent US10881106B2, “Herbicidal pyridazinone compounds” (SYNGENTA PARTICIPATIONS AG, priority 2016, dated 2021).

Common to all, as to assay type: in vivo
Test [1] concerns Abutilon theophrasti (ABUTH). Kind of test: Post-emergence glasshouse herbicide test, percentage damage to plant. Conditions: POST Application, 125 g/ha, evaluated after 14 days. The procedure:
(§1) Seeds of a variety of test species were sown in standard soil in pots (Amaranthus retoflexus (AMARE), Abutilon theophrasti (ABUTH), Digitaria sanguinalis (DIGSA), Setaria faberi (SETFA) and Zea mays (ZEAMX). After cultivation for 10 days under controlled conditions in a glasshouse (at 24/16° C., day/night; 14 hours light; 65% humidity), the plants were sprayed with an aqueous spray solution derived from the formulation of the technical active ingredient in 0.6 ml acetone and 45 ml formulation solution containing 10.6% Emulsogen EL (Registry number 61791-12-6), 42.2% N-methyl pyrrolidone, 42.2% dipropylene glycol monomethyl ether (CAS RN 34590-94-8) and 0.2% X-77 (CAS RN 11097-66-8). The test plants were then grown in a glasshouse under controlled conditions in a glasshouse (at 24/16° C., day/night; 14 hours light; 65% humidity) and watered twice daily. After 14 days the test is evaluated for the percentage damage caused to the plant. The biological activities are shown in the following table on a five point scale (5=80-100%; 4=60-79%; 3=40-59%; 2=20-39%; 1=0-19%).

Test [2] relates to Amaranthus retoflexus (AMARE). The test is described as above. Conditions: POST Application, 125 g/ha, evaluated after 14 days. The protocol: as §1
The subject of test [3] is Digitaria sanguinalis (DIGSA). The test is described as above. Conditions: POST Application, 125 g/ha, evaluated after 14 days. The protocol:
as §1

In the next test the test system is Setaria faberi (SETFA). Described as above. As to conditions: POST Application, 125 g/ha, evaluated after 14 days. The procedure: as §1
The next test concerns Zea mays (ZEAMX). Kind of test: Post-emergence glasshouse herbicide test, percentage damage to crop plant. As to conditions: POST Application, 125 g/ha, evaluated after 14 days; crop (corn). The protocol:
as §1

In the case of `Cc1cc(C(=O)C2=C([O-])CC(C)CC2=O)c(=O)n(CCOC(=O)N(C)C)n1.[Na+]` (stereo not drawn) [Compound 1.026], the “ABUTH percentage damage caused to the plant (five point scale)” value (“ABUTH percentage damage caused” for short) in test [1] is recorded as 5 (5=80-100%). Besides, in test [2], the “AMARE percentage damage caused to the plant (five point scale)” value (“AMARE percentage damage caused” below) is given as 5 (5=80-100%). Also, the “DIGSA percentage damage caused to the plant (five point scale)” value (shortened to “DIGSA percentage damage caused”) in test [3] was 5 (5=80-100%). The “SETFA percentage damage caused to the plant (five point scale)” value (“SETFA percentage damage caused” for short) in the test on Setaria faberi (SETFA) is recorded as 5 (5=80-100%). Further, the “ZEAMX percentage damage caused to the plant (five point scale)” value (“ZEAMX percentage damage caused” below) with Zea mays (ZEAMX) is 1 (1=0-19%).

As to `CNC(=O)OCCn1nc(C)cc(C(=O)C2=C(O)CCCC2=O)c1=O` [Compound 1.008], the “ABUTH percentage damage caused” value in test [1] is listed as 5 (5=80-100%). The “AMARE percentage damage caused” value in test [2] is given as 5 (5=80-100%). For the same molecule, the “DIGSA percentage damage caused” value in test [3] is listed as 5 (5=80-100%). Further, the “SETFA percentage damage caused” value with Setaria faberi (SETFA) is reported as 5 (5=80-100%). The “ZEAMX percentage damage caused” value with Zea mays (ZEAMX) was 1 (1=0-19%).

With `Cc1cc(C(=O)C2=C([O-])CCCC2=O)c(=O)n(CCOC(=O)N(C)CC(F)(F)F)n1.[Na+]` [Compound 1.023], the “ABUTH percentage damage caused” value in test [1] is listed as 3 (3=40-59%). In test [2], the “AMARE percentage damage caused” value is on record as 3 (3=40-59%). Besides, in test [3], the “DIGSA percentage damage caused” value is given as 5 (5=80-100%). The “SETFA percentage damage caused” value in the test with Setaria faberi (SETFA) is listed as 5 (5=80-100%). The “ZEAMX percentage damage caused” value with Zea mays (ZEAMX) was 1 (1=0-19%).

Consider `Cc1cc(C(=O)C2=C([O-])CCCC2=O)c(=O)n(CCOC(=O)N2CCOCC2)n1.[Na+]` [Compound 1.025], for which the “ABUTH percentage damage caused” value in test [1] was 5 (5=80-100%). Also, the “AMARE percentage damage caused” value in test [2] was 5 (5=80-100%). Further, the “DIGSA percentage damage caused” value in test [3] is recorded as 5 (5=80-100%). Further, the “SETFA percentage damage caused” value in the test on Setaria faberi (SETFA) is listed as 5 (5=80-100%). Besides, in the test with Zea mays (ZEAMX), the “ZEAMX percentage damage caused” value is 1 (1=0-19%).

Turning to `Cc1cc(C(=O)C2=C(O)CCCC2=O)c(=O)n(CCOC(=O)N(C)C)n1` [Compound 1.009], the “ABUTH percentage damage caused” value in test [1] was 5 (5=80-100%). Moreover, the “AMARE percentage damage caused” value in test [2] is reported as 5 (5=80-100%). In test [3], the “DIGSA percentage damage caused” value was 5 (5=80-100%). For the same molecule, the “SETFA percentage damage caused” value in the test on Setaria faberi (SETFA) is 4 (4=60-79%). Also, the “ZEAMX percentage damage caused” value in the test on Zea mays (ZEAMX) is 1 (1=0-19%).

With `Cc1cc(C(=O)C2=C([O-])CCCC2=O)c(=O)n(CCC(=O)N(C)CC(F)(F)F)n1.[Na+]` [Compound 1.014], the “ABUTH percentage damage caused” value in test [1] is listed as 5 (5=80-100%). In test [2], the “AMARE percentage damage caused” value was 5 (5=80-100%). In test [3], the “DIGSA percentage damage caused” value is on record as 5 (5=80-100%). In addition, the “SETFA percentage damage caused” value with Setaria faberi (SETFA) is reported as 5 (5=80-100%). Further, in the test with Zea mays (ZEAMX), the “ZEAMX percentage damage caused” value is on record as 1 (1=0-19%).
